“Also recorded” adds a separate entry of the source.
How the values were obtained:
Best1 channel [1] = target: T1, Best1 channel (Mus musculus, UniProt O88870); conditions: intracellular Ca2+; read-out: EC50 of activation of Best1 channel; cited from earlier work
T1 sequence (O88870 1-551): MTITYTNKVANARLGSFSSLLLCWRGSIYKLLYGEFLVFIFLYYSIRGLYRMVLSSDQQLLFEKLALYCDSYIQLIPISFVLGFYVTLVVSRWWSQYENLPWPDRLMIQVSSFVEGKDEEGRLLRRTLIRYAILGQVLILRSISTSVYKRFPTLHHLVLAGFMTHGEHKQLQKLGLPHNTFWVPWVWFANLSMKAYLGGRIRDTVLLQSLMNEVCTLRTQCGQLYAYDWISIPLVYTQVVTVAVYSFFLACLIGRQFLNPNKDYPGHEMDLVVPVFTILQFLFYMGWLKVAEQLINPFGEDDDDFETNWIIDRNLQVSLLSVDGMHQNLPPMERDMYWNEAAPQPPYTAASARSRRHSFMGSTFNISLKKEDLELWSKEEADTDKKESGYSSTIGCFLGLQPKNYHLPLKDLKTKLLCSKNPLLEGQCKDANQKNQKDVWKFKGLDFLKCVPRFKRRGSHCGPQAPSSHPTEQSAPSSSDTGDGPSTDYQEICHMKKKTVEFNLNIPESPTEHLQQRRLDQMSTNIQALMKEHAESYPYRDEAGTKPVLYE

astrocyte = assay type: cell-based, mouse
[2] = tested on: primary cultured astrocyte; assay type: cell-based, mouse
GNG4 = target: T2, GNG4 (Homo sapiens, UniProt P50150); assay: Yeast two hybrid interaction of TREK-1 N-terminal segments with GNG4; assay type: binding
T2 construct: expressed in transfected cells; host or cells: yeast strain AH109
T2 sequence (P50150 1-75): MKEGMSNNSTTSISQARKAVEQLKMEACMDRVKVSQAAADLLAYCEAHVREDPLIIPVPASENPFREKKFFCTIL
Text: The TREK-1-N 1-4 were ligated into pGBKT7 encoding for the GAL4 DNA binding domain (BD) and the gamma 4 was cloned into pGADT7 encoding for the activation domain (AD). To assess the protein-protein interaction between TREK-1-N and gamma 4, both BD/TREK-1-N and AD/gamma 4 were co-transformed into the yeast strain AH109. AH109 is unable to synthesize histidine. However, interaction between TREK1-N and gamma 4 enables the yeast to make the His3 enzyme, thereby permitting histidine biosynthesis and growth on His minimal medium.

TREK-1 [3] = assay: Gβγ-induced whole-cell current in cultured astrocytes; assay type: cell-based, mouse; conditions: 6.09 nM Gβγ; for Gβγ-induced whole-cell current: competitive peptide in patch pipette; for Gβγ-induced conductance: 150 [Glu]in, gene silencing
Method: (§1) Current-voltage (I-V) curves were recorded from COS-7 expressing TREK-1. I-V curves were established by applying 1000-ms-duration voltage ramps from +70 to −100 mV. Data were acquired by an Axopatch 200A amplifier controlled by Clampex 9.2 via Digidata 1322A data acquisition system (Molecular Devices). Internal solution contained the following (in mM: 150 KCl, 5 EGTA, 10 HEPES, 0.5 CaCl2, 1 MgCl2, pH 7.3, 280 osm). Bath solution contains the following (in mM: 150 NaCl, 10 HEPES, 3 KCl, 2 CaCl2, 2MgCl2, and 5.5 glucose, pH 7.3). The pipette solution for observing Ca^2+ activated Cl^− current (Best1 channel current) whole-cell patch clamp in astrocytes contained the following (in mM: 135 NMDG-Cl, 5 MgCl2, 5 (Ca^2+)-EGTA-N-methyl-D-glucamine (NMDG), 10 HEPES, and 10 glucose, pH 7.3, adjusted with NMDG). We used Ca^2+-free intracellular solution composed of the following (in mM: 135 NMDG-Cl, 5 EGTA-NMDG, 2 MgCl2, 8 HEPES, and 10 sucrose, pH 7.3, adjusted with NMDG). I-V curves were established by applying 1000-ms-duration voltage ramps from +100 to −100 mV.
We then asked whether Gβγ can directly open any channels in cultured astrocytes. We performed whole-cell current recording with purified Gβγ in the patch-pipette according to the method of Experimentation 12. The results were shown in FIGS. 3d to 3f, FIG. 3i, and FIGS. 12d to 12f.

Best1 channel [4] = target: Best1 channel (Mus musculus, UniProt O88870); assay type: cell-based
GluR1-L497Y = GluR1-L497Y (Homo sapiens, UniProt P42261, L497Y); assay type: cell-based
mouse TREK-1 = target: T3, mouse TREK-1 (Mus musculus, UniProt P97438); assay: TREK-1-mediated whole-cell current in COS-7 cells; assay type: cell-based; conditions: COS-7 cell expressing TREK-1; voltage ramp
T3 construct: expressed in transfected cells; host or cells: COS-7
T3 sequence (P97438 1-426): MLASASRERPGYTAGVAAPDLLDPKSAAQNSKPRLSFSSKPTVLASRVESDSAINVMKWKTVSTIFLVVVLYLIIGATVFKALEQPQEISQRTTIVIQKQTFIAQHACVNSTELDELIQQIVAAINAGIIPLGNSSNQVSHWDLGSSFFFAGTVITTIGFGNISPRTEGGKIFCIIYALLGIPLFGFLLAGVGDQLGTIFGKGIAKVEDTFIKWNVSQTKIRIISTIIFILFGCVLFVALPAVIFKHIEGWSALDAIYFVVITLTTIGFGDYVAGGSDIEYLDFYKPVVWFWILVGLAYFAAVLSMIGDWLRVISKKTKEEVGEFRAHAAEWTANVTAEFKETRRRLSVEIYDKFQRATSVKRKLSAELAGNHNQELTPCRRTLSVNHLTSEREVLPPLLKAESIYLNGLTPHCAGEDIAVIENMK
Method: as §1

TREK-1 [5] = assay: Two-cell sniffer patch: Gβγ-induced glutamate release from astrocyte; assay type: cell-based, mouse; conditions: 6.09 nM Gβγ, 5 mM glutamate in pipette; peptides 100 μM
Method: On the day of sniffer-patch, cultured astrocytes (HEK cells added) were transferred to a microscope stage for imaging. External solution contained (in mM): 150 NaCl, 10 Hepes, 3 KCl, 2 CaCl2, 2 MgCl2, 5.5 glucose, pH adjusted to pH 7.3 and osmolarity to 325 mOsmol kg* Rupture current were recorded from astrocyte under voltage (Vh=−70 mV) using Multiclamp 700B amplifier (Molecular Devices), acquired with pClamp 9.2. Recording electrodes (4-7MΩ) were filled with (mM): 5 glutamate, 135 CsCl, 0.5 CaCl2, 10 Hepes, 4 Mg-ATP, 0.3 Na3-GTP, 10 BAPTA and 6.09 nM Gβγ (pH adjusted to 7.3 with CsOH and osmolarity adjusted to 290-310 mOsm/kg with sucrose). In the case of gene silencing, transfection method is the same as simultaneous recording for sniffer patch. In competition assay, 100 μM N1-N4 synthesized peptides were added to pipette for recording astrocyte. GluR1LY-mediated currents were recorded from HEK cells expressing GluR1-L497Y under voltage clamp (Vh=−70 mV) using Multiclamp 700B amplifier (Molecular Devices), acquired with pClamp 9.2. Recording electrodes (4-7MΩ) were filled with (mM): 110 Cs-Gluconate, 30 CsCl, 0.5 CaCl2, 10 Hepes, 4 Mg-ATP, 0.3 Na3-GTP and 10 BAPTA (pH adjusted to 7.3 with CsOH and osmolarity adjusted to 290-310 mOsm/kg with sucrose). After rupture on the side of HEK cell, GluR1-L497Y-meidated full activation was induced by the treatment of 1 mM glutamate. And then Gβγ on the side of astrocyte was injected with the rupture after 10 min later. This rupture induced both inward current on both recording between astrocyte and HEK cell expressing GluR1-L497Y.

Chain of GluR1-L497Y (P42261 19-906 L497Y limits assumed): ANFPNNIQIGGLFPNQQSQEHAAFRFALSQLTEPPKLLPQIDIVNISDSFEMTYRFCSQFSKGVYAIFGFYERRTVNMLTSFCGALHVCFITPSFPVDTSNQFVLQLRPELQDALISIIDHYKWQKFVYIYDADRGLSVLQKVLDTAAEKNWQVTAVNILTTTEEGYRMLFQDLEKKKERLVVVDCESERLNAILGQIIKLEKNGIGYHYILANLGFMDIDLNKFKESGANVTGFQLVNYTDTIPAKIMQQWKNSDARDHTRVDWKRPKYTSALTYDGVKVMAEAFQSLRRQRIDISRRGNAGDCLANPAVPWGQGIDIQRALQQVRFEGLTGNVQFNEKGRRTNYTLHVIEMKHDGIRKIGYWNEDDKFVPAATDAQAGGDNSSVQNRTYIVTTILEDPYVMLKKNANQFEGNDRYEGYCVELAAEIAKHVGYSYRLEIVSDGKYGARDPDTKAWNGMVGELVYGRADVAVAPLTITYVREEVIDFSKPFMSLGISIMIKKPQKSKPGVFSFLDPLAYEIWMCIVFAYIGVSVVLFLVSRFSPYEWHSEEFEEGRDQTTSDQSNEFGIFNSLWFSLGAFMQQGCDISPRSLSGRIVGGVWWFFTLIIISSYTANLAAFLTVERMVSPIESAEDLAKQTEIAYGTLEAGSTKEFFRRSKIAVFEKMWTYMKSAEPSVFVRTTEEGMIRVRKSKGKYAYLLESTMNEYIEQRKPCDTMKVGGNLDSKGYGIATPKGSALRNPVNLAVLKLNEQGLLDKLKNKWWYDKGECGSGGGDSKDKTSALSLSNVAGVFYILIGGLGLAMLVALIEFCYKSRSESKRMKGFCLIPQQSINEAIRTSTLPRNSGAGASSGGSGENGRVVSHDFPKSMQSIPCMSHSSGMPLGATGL

[Ca+2] [Ca^2+]
EC50 (Best1 channel [1]): 150 nM

O=C([O-])c1c(Cl)c(Cl)c(Cl)c(Cl)c1-c1c2cc(I)c(=O)c(I)c-2oc2c(I)c([O-])c(I)cc12.[Na+].[Na+] [Rose Bengal]
glutamate release in response to mechanical stimulation (astrocyte): inhibited | fast and slow-modes of TFLLR-induced glutamate release (TFLLR-induced GluR1L497Y-mediated current) [2]: does not inhibit; also recorded: did not have any effect

DSAINVMKWKT (Competitive peptides N4 of TREK-1)
interaction with GNG4 (GNG4): strongly interacted | Gβγ-induced whole-cell current (TREK-1 [3]): significantly reduced

AQNSKPRLSFSS (Competitive peptides N2 of TREK-1)
interaction with GNG4 (GNG4): strongly interacted | Gβγ-induced whole-cell current (TREK-1 [3]): significantly reduced

CO/C1=C\C(C)=C\[C@@H](C)[C@@H](O)[C@@H](C)C/C(C)=C/C=C/[C@H](OC)[C@@H]([C@@H](C)[C@@H](O)[C@H](C)[C@@]2(O)C[C@@H](O)[C@H](C)[C@@H](C(C)C)O2)OC1=O [Bafilomycin A1]
Ca2+-activated anion current (Best1 channel [4]): inhibited | fast and slow-modes of TFLLR-induced glutamate release (TFLLR-induced GluR1L497Y-mediated current) [2]: significantly reduction; also recorded: significantly reduced; also recorded: appeared to block | 1 mM glutamate-induced GluR1L497Y-mediated current of sensor cell (GluR1-L497Y): marked reduction | GluR1LY-mediated Ca2+ transient evoked by 1 mM glutamate (GluR1-L497Y): reduces | surface expression of GluR1-L497Y in the sensor cell (GluR1-L497Y): almost completely eliminated

Cc1nc(N=Nc2ccc(S(=O)(=O)[O-])cc2S(=O)(=O)[O-])c(COP(=O)([O-])[O-])c(C=O)c1O.[Na+].[Na+].[Na+].[Na+] [PPADS, pyridoxal phosphate-6-azophenyl-2′,4′-disulfonic acid tetrasodium salt]
TREK-1-mediated current (mouse TREK-1): inhibits | fast-mode of TFLLR-induced glutamate release [2]: appeared to block | 1 mM glutamate-induced GluR1L497Y-mediated current of sensor cell (GluR1-L497Y): non-specific effect

AAPDLLDPKSA (Competitive peptides N1 of TREK-1)
interaction with GNG4 (GNG4): strongly interacted | Gβγ-induced whole-cell current (TREK-1 [3]): significantly reduced; also recorded: almost inhibit | Gβγ-induced current in astrocyte (TREK-1 [5]): significantly reduced | Gβγ-induced glutamate release (sensor current) (TREK-1 [5]): significantly reduced

TREK-1-shRNA: shRNA for mouse TREK-1 targeted at nucleotides 1043 to 1063 (SEQ ID NO: 17), in pSicoR (guide GCGTGGAGATCTACGACAAGT)
Gβγ-induced conductance (TREK-1 [3]): eliminated | Gβγ-induced conductance (TREK-1 [3]; listed as TREK-1 specific shRNA): almost completely removed | Gβγ-induced current in astrocyte (TREK-1 [5]): abolished | Gβγ-induced glutamate release (sensor current) (TREK-1 [5]): abolished | fast-mode of TFLLR-induced glutamate release [2]: selectively eliminated | slow-mode of TFLLR-induced glutamate release [2]: without affecting

Source: patent US8871463B2, “Method for screening a glutamate release inhibitor in an astrocyte” (Korea Institute of Science and Technology, priority 2012, dated 2014)
